The nature of the data set: Buffering capacity. The data set is classed as physicochemical.

Structures are written as SMILES.

As to `O=C([O-])[O-].[Ca+2]` [CaCO3], the “buffering capacity, mekvH+/kg sample” value was 14850 mekvH+/kg sample.

For the compound `O=S(=O)([O-])[O-].[Ca+2]` [CaSO4], the “buffering capacity, mekvH+/kg sample” value is given as 50 mekvH+/kg sample.

For the origin of these results see US20090220648A1, “Nutritional additive for animals” (KEMIRA GROW HOW AB, priority 2005, published 2009).
